The source of these data is ChEMBL document CHEMBL4651402, “Screening of ~5500 FDA-approved drugs and clinical candidates for anti-SARS-CoV-2 activity” (2021).

SMILES strings stand for the structures.

For the first assay, the system named is SARS-CoV-2. The assay can be described thus: microbe, parasite or virus in culture. The conditions noted are these: Severe acute respiratory syndrome coronavirus 2, Vero C1008, 48 h.
`CCC1(O)CC2CN(CCc3c([nH]c4ccccc34)C(C(=O)OC)(c3cc4c(cc3OC)N(C)C3C(O)(C(=O)OC)C(OC(C)=O)C5(CC)C=CCN6CCC43C65)C2)C1` (stereo not given): the IC50 was more than 20 µM.
Take `NC(CO)C(=O)NNCc1ccc(O)c(O)c1O` (stereo not given) [BENSERAZIDE]: the IC50 was more than 20 µM.
Still for that read-out and setting: then `O=C(Cc1ccc(-c2ccc(OCCN3CCOCC3)cc2)cn1)NCc1ccccc1` [TIRBANIBULIN], with more than 20 µM; and `CCc1nc2c(C)nc(C)cc2n1-c1ccc(CCNC(=O)NS(=O)(=O)c2ccc(C)cc2)cc1` [GRAPIPRANT], with more than 20 µM; and `CCN(CC)CC(=O)Nc1c(C)cc(C)cc1C` [TRIMECAINE], with more than 20 µM.
Consider `CC[C@H](C)n1ncn(-c2ccc(N3CCN(c4ccc(OC[C@H]5CO[C@@](Cn6cncn6)(c6ccc(F)cc6F)O5)cc4)CC3)cc2)c1=O`, for which the IC50 is more than 20 µM.
As for `c1cc2c(cc1[C@H]1OC[C@H]3[C@@H]1CO[C@H]3c1ccc3c(c1)OCO3)OCO2` [ASARININ], the IC50 was more than 20 µM.
Turning to `Cc1cccc(N2CCN(CCCOc3ccc4ccc(O)nc4c3)CC2)c1C`, the IC50 was more than 20 µM.
The same measure, in the same setting: then `COCc1c(C(C)C)nc(C(C)C)c(/C=C/[C@@H](O)C[C@@H](O)CC(=O)O)c1-c1ccc(F)cc1` [CERIVASTATIN], with more than 20 µM; and `Clc1ccc(C(Cn2ccnc2)OCc2c(Cl)cccc2Cl)cc1` (stereo not given) [ORCONAZOLE], with more than 20 µM; and `CC(C)(N)C(=O)N[C@H](COCc1ccccc1)C(=O)N1CCC2(CC1)CN(S(C)(=O)=O)c1ccccc12` [IBUTAMOREN], with more than 20 µM.
Compound `CC(C)CN(C[C@@H](O)[C@H](Cc1ccccc1)NC(=O)O[C@H]1CCOC1)S(=O)(=O)c1ccc(N)cc1` showed an IC50 of more than 20 µM.
In the case of `C=CCN1CCC[C@H]1CNC(=O)c1cc(CCCF)cc(OC)c1OC` [FALLYPRIDE], the IC50 was more than 20 µM.
In turn, `CC(=O)Nc1c(I)c(C(=O)N[C@H]2C(O)O[C@H](CO)[C@@H](O)[C@@H]2O)c(I)c(N(C)C(C)=O)c1I` (stereo not given in full) [METRIZAMIDE] showed an IC50 of more than 20 µM.
For the compound `CC12C=CC(=O)C=C1CCC1C2CCC2(C)C(=O)CCC12` (stereo not given), the IC50 is more than 20 µM.
Still for that read-out and setting: then `CCC(CC)CC(=O)c1c(C(=O)OC)c(-c2ccc(OC)c(OC)c2)c2c(OC)c(OC)c(OC)cc2c1O`, with more than 20 µM; and `CC(C)(N)Cc1ccccc1Cl` [CLORTERMINE], with more than 20 µM.
On the same count and under the same terms, the value for `COc1ccc(-c2cc3c(C)nc(N)nc3n([C@H]3CC[C@H](OCCO)CC3)c2=O)cn1` [PF-04691502] was more than 20 µM; that for `CC1CNc2c(cccc2S(=O)(=O)N[C@@H](CCCNC(=N)N)C(=O)N2CC[C@@H](C)C[C@@H]2C(=O)O)C1` (stereo not given in full) [ARGATROBAN] was more than 20 µM; that for `CCC1(c2ccccc2)CCC(=O)NC1=O` (stereo not given) [GLUTETHIMIDE] was more than 20 µM.
The compound `Cc1nc(=O)c(C#N)c(NCc2cccnc2)[nH]1` [PELRINONE] displayed an IC50 of more than 20 µM.
The same measure, in the same setting: the value for `CC(C)S(=O)(=O)n1c(N)nc2ccc(C(=NO)c3ccccc3)cc21` [VIROXIME] was more than 20 µM; that for `CC(C)[N+](C)(CCC(C(N)=O)(c1ccccc1)c1ccccc1)C(C)C` [ISOPROPAMIDE] was more than 20 µM; that for `CC(C)=CCC/C(C)=C/CC/C(C)=C/CSc1ccccc1C(=O)O` [SALIRASIB] was more than 20 µM.
`N=C(N)NCCC[C@H](NC(=O)c1ccc2ccccc2c1O)C(=O)N1CCC[C@H]1C(N)=O` yielded an IC50 of more than 20 µM.
`O=C(O)c1ccc(CN2CC3CC2CN3Cc2ccc(Oc3ccc(-c4ncco4)cc3)cc2)cc1` (stereo not given) gave an IC50 of more than 20 µM.
In turn, `CCCCCc1ccc(C)cc1O` [AMYLMETACRESOL] yielded an IC50 of more than 20 µM.
In the case of `CCOC(=O)C1(c2ccccc2)CCN(CCC(O)c2ccccc2)CC1` (stereo not given) [PHENOPERIDINE], the IC50 was more than 20 µM.
Same read-out and setting: the value for `Nc1ncnc2c1ncn2[C@@H]1O[C@H](COP(=O)(O)OP(=O)(O)OP(=O)(O)O)[C@@H](O)[C@H]1O` [ADENOSINE TRIPHOSPHATE] was more than 20 µM; that for `OC(CCCN1CCCCC1)(c1ccccc1)c1ccccc1` [DIPHENIDOL] was more than 20 µM.

Staying with this assay, now noted: Severe acute respiratory syndrome coronavirus 2, Vero C1008, 48 h, read-out: pIC50 (converted).
On to `CCC1(O)CC2CN(CCc3c([nH]c4ccccc34)C(C(=O)OC)(c3cc4c(cc3OC)N(C)C3C(O)(C(=O)OC)C(OC(C)=O)C5(CC)C=CCN6CCC43C65)C2)C1` (stereo not given), for which the IC50 is more than 20 µM.
The same measure, in the same setting: the value for `NC(CO)C(=O)NNCc1ccc(O)c(O)c1O` (stereo not given) [BENSERAZIDE] was more than 20 µM; that for `O=C(Cc1ccc(-c2ccc(OCCN3CCOCC3)cc2)cn1)NCc1ccccc1` [TIRBANIBULIN] was more than 20 µM; that for `CCc1nc2c(C)nc(C)cc2n1-c1ccc(CCNC(=O)NS(=O)(=O)c2ccc(C)cc2)cc1` [GRAPIPRANT] was more than 20 µM.
Same read-out and setting: then `CCN(CC)CC(=O)Nc1c(C)cc(C)cc1C` [TRIMECAINE], with more than 20 µM; and `CC[C@H](C)n1ncn(-c2ccc(N3CCN(c4ccc(OC[C@H]5CO[C@@](Cn6cncn6)(c6ccc(F)cc6F)O5)cc4)CC3)cc2)c1=O`, with more than 20 µM; and `c1cc2c(cc1[C@H]1OC[C@H]3[C@@H]1CO[C@H]3c1ccc3c(c1)OCO3)OCO2` [ASARININ], with more than 20 µM.
The same measure, in the same setting: the value for `Cc1cccc(N2CCN(CCCOc3ccc4ccc(O)nc4c3)CC2)c1C` was more than 20 µM; that for `COCc1c(C(C)C)nc(C(C)C)c(/C=C/[C@@H](O)C[C@@H](O)CC(=O)O)c1-c1ccc(F)cc1` [CERIVASTATIN] was more than 20 µM; that for `Clc1ccc(C(Cn2ccnc2)OCc2c(Cl)cccc2Cl)cc1` (stereo not given) [ORCONAZOLE] was more than 20 µM.
As to `CC(C)(N)C(=O)N[C@H](COCc1ccccc1)C(=O)N1CCC2(CC1)CN(S(C)(=O)=O)c1ccccc12` [IBUTAMOREN], the IC50 was more than 20 µM.
Same read-out and setting: then `CC(C)CN(C[C@@H](O)[C@H](Cc1ccccc1)NC(=O)O[C@H]1CCOC1)S(=O)(=O)c1ccc(N)cc1`, with more than 20 µM; and `C=CCN1CCC[C@H]1CNC(=O)c1cc(CCCF)cc(OC)c1OC` [FALLYPRIDE], with more than 20 µM.
On to `CC(=O)Nc1c(I)c(C(=O)N[C@H]2C(O)O[C@H](CO)[C@@H](O)[C@@H]2O)c(I)c(N(C)C(C)=O)c1I` (stereo not given in full) [METRIZAMIDE], for which the IC50 was more than 20 µM.
Regarding `CC12C=CC(=O)C=C1CCC1C2CCC2(C)C(=O)CCC12` (stereo not given), the IC50 is more than 20 µM.
In the case of `CCC(CC)CC(=O)c1c(C(=O)OC)c(-c2ccc(OC)c(OC)c2)c2c(OC)c(OC)c(OC)cc2c1O`, the IC50 is more than 20 µM.
In the case of `CC(C)(N)Cc1ccccc1Cl` [CLORTERMINE], the IC50 was more than 20 µM.
The same measure, in the same setting: then `COc1ccc(-c2cc3c(C)nc(N)nc3n([C@H]3CC[C@H](OCCO)CC3)c2=O)cn1` [PF-04691502], with more than 20 µM; and `CC1CNc2c(cccc2S(=O)(=O)N[C@@H](CCCNC(=N)N)C(=O)N2CC[C@@H](C)C[C@@H]2C(=O)O)C1` (stereo not given in full) [ARGATROBAN], with more than 20 µM.
The same measure, in the same setting: the value for `CCC1(c2ccccc2)CCC(=O)NC1=O` (stereo not given) [GLUTETHIMIDE] was more than 20 µM; that for `Cc1nc(=O)c(C#N)c(NCc2cccnc2)[nH]1` [PELRINONE] was more than 20 µM; that for `CC(C)S(=O)(=O)n1c(N)nc2ccc(C(=NO)c3ccccc3)cc21` [VIROXIME] was more than 20 µM.
Same read-out and setting: the value for `CC(C)[N+](C)(CCC(C(N)=O)(c1ccccc1)c1ccccc1)C(C)C` [ISOPROPAMIDE] was more than 20 µM; that for `CC(C)=CCC/C(C)=C/CC/C(C)=C/CSc1ccccc1C(=O)O` [SALIRASIB] was more than 20 µM; that for `N=C(N)NCCC[C@H](NC(=O)c1ccc2ccccc2c1O)C(=O)N1CCC[C@H]1C(N)=O` was more than 20 µM.
On to `O=C(O)c1ccc(CN2CC3CC2CN3Cc2ccc(Oc3ccc(-c4ncco4)cc3)cc2)cc1` (stereo not given), for which the IC50 was more than 20 µM.
As to `CCCCCc1ccc(C)cc1O` [AMYLMETACRESOL], the IC50 is more than 20 µM.
Regarding `CCOC(=O)C1(c2ccccc2)CCN(CCC(O)c2ccccc2)CC1` (stereo not given) [PHENOPERIDINE], the IC50 was more than 20 µM.
Still for that read-out and setting: then `Nc1ncnc2c1ncn2[C@@H]1O[C@H](COP(=O)(O)OP(=O)(O)OP(=O)(O)O)[C@@H](O)[C@H]1O` [ADENOSINE TRIPHOSPHATE], with more than 20 µM.
Same read-out and setting: the value for `OC(CCCN1CCCCC1)(c1ccccc1)c1ccccc1` [DIPHENIDOL] was more than 20 µM.
